Measured values from PubChem BioAssay (NCI).
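Test compounds were applied to cells in 96-well plates for 48 hours at 5 doses. TGI is the concentration that stops growth completely.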

Experiments:
Experiment in all cases: NCI anticancer screen, dose series, 48 h
HCT-116 colon = system: HCT-116 colon
HCT-15 colon = system: HCT-15 colon
HL-60(TB) leukemia = system: HL-60(TB) leukemia
IGROV1 ovarian = system: IGROV1 ovarian
LOX IMVI melanoma = system: LOX IMVI melanoma
OVCAR-4 ovarian = system: OVCAR-4 ovarian
OVCAR-5 ovarian = system: OVCAR-5 ovarian
SF-295 CNS = system: SF-295 CNS
SK-MEL-2 melanoma = system: SK-MEL-2 melanoma
UACC-257 melanoma = system: UACC-257 melanoma
MALME-3M melanoma = system: MALME-3M melanoma
SNB-19 CNS = system: SNB-19 CNS

Row | SMILES | TGI (HCT-116 colon) | TGI (HCT-15 colon) | TGI (HL-60(TB) leukemia) | TGI (IGROV1 ovarian) | TGI (LOX IMVI melanoma) | TGI (OVCAR-4 ovarian) | TGI (OVCAR-5 ovarian) | TGI (SF-295 CNS) | TGI (SK-MEL-2 melanoma) | TGI (UACC-257 melanoma) | TGI (MALME-3M melanoma) | TGI (SNB-19 CNS)
1 | O=C1/C(=C/c2ccc(Cl)cc2)N=C(c2ccccc2)N1C1Nc2cc3c(cc2S1)NC(N1C(=O)/C(=C/c2ccc(Cl)cc2)N=C1c1ccccc1)S3 (configuration not stated) | > 100 µM | > 100 µM | 2.47 µM | > 100 µM | > 100 µM | > 100 µM | > 100 µM | > 100 µM | > 100 µM | > 100 µM |  | 
2 | Cn1c(=O)c2nc3nnc(C#N)c(N)n3c2n(C)c1=O | > 100 µM | > 100 µM | > 100 µM | > 100 µM |  | > 100 µM | > 100 µM | > 100 µM | > 100 µM |  | 81.2 µM | 
3 | Cc1nc2c(n1CCC(C)C)C(=O)c1ccccc1C2=O | 22.6 µM | > 100 µM | 28.1 µM | 58.9 µM | 30.9 µM | > 100 µM |  | 67.3 µM | 34.6 µM | 56.7 µM | 55.3 µM | > 100 µM
4 | Fc1ccc(NCn2nc(COc3ccccc3Cl)n(/N=C/c3ccc(-c4ccc(Cl)cc4Cl)o3)c2=S)cc1Cl | > 100 µM | > 100 µM | 48.9 µM | > 100 µM | > 100 µM | > 100 µM | > 100 µM | > 100 µM | 62.6 µM | > 100 µM |  | 
5 | CC(=O)O[C@H]1[C@@H](OC2CCCC2(c2ccccc2)c2ccccc2)O[N+]([O-])=C[C@@]12COCc1cc3c(cc12)OCO3 (some centres not stated) | > 47.5 µM | 67 µM | > 100 µM | 22.2 µM | > 26.6 µM | 15.1 µM | > 51.5 µM | > 25.9 µM |  | > 100 µM |  | 49 µM
6 | O=C(Nc1nncs1)NS(=O)(=O)n1cnc2ccccc21 | > 100 µM | > 100 µM | > 100 µM | > 100 µM |  | > 100 µM | > 100 µM | > 100 µM | > 100 µM | > 100 µM | > 100 µM | > 100 µM
7 | CNC(=O)c1n[nH]n(Cc2ccccc2)c1=S | > 100 µM | > 100 µM |  | > 100 µM |  | > 100 µM | > 100 µM | > 100 µM | > 100 µM | > 100 µM |  | > 100 µM
8 | N#CC(C#N)=Cc1ccc(C=C2SC3=C(SCCS3)S2)s1 | > 100 µM | > 100 µM | 7.03 µM | > 100 µM |  | > 100 µM | 35.2 µM | > 100 µM | > 100 µM | > 100 µM | > 100 µM | > 100 µM
9 | COc1ccccc1-c1nc2ccccc2c(=O)[nH]1 | > 100 µM | > 100 µM |  | > 100 µM |  | > 100 µM | > 100 µM | > 100 µM | > 100 µM | > 100 µM | > 100 µM | > 100 µM
10 | CCN(CC)CCNc1ccc2ncn3c4c(OC)cccc4c(=O)c1c23 | 10.1 µM | 19.2 µM |  | 34.7 µM |  | 15.4 µM |  | 25.1 µM |  | 69.2 µM | 21.4 µM | 46.3 µM
11 | COC(=O)c1cc(-c2ccc(-c3ccc(O)cc3)cc2)cc(-c2ccc(-c3ccc(O)cc3)cc2)c1 | 17.9 µM | 20.8 µM |  | 21.1 µM | 18.4 µM | 35.9 µM | 29.1 µM | 20.2 µM | 33.7 µM | 33.3 µM |  | 32.8 µM
12 | O=C1N(CN2CCOCC2)CN(CN2CCOCC2)C(=O)N1Cc1ccccc1 | 54.4 µM | 84.8 µM |  | 64.9 µM | 33 µM | > 100 µM | > 100 µM | > 100 µM | 32.2 µM | 48.6 µM | 29.5 µM | > 100 µM
13 | COc1ccc(/C=C(\C(=O)OCC(C)C)c2ccc(OC)c(OC)c2)cc1OC | > 100 µM | > 100 µM | > 100 µM | > 100 µM | > 100 µM | > 100 µM | > 100 µM | > 100 µM | > 100 µM | > 100 µM |  | > 100 µM
14 | O=c1oc2cc(O)ccc2cc1-c1nc2ccccc2s1 | 47 µM | > 100 µM | 55.6 µM | > 100 µM | 90.2 µM | > 100 µM | > 100 µM | 89.3 µM | 50.6 µM | 58.2 µM |  | > 100 µM
15 | CC(=O)O[C@H]1CC[C@H]2[C@@H]3CCC4=C(C(=O)C=CC4(C)OC(C)=O)[C@H]3CC[C@]12C (some centres not stated) | > 100 µM | > 100 µM | 97.1 µM | > 100 µM | > 100 µM | > 100 µM | > 100 µM | > 100 µM |  | > 100 µM | > 100 µM | > 100 µM
16 | CCOC(=O)NC(NNc1ccc([N+](=O)[O-])cc1[N+](=O)[O-])(C(F)(F)F)C(F)(F)F | > 100 µM | > 100 µM | 58.9 µM | > 100 µM | > 100 µM |  | > 100 µM | > 100 µM | > 100 µM | > 100 µM | > 100 µM | > 100 µM
17 | C[N+](C)(C)C1(C(=O)[O-])CC1 | > 100 µM | > 100 µM | > 100 µM | > 100 µM | > 100 µM | > 100 µM | > 100 µM | > 100 µM |  | > 100 µM | > 100 µM | > 100 µM
18 | c1cc2cc(c1)CN1CCNCCN(CCNCC1)Cc1cccc(c1)CN1CCNCCN(CCNCC1)C2 | > 100 µM | > 100 µM |  | > 100 µM | > 100 µM | > 100 µM | > 100 µM | > 100 µM | > 100 µM | > 100 µM | > 100 µM | > 100 µM
19 | COC1=CC(=O)c2c(O)ccc(O)c2C1=O | 31.2 µM | 6.91 µM | 23 µM | 37.5 µM |  | 27.2 µM | 35.7 µM | 4.35 µM |  | 2.88 µM | 0.357 µM | 18.8 µM
20 | Cc1cc(N(CCC#N)CCC#N)ccc1/C(N=Nc1ccccc1)=N\NC(=O)c1ccccc1 | > 100 µM | 48 µM | > 100 µM | > 100 µM |  | > 100 µM | > 100 µM | > 100 µM | > 100 µM | > 100 µM | > 100 µM | > 100 µM
